≈ marks a conversion by molar mass, not a printed value. Entries after “also recorded” stand apart in the source; their conditions may differ. Where two headings read alike, the source gives them in different places.
Columns and labels:
wild-type PyrG = wild-type PyrG (Mycobacterium tuberculosis, UniProt P9WHK7); type: biochemical, M. tuberculosis; design: % inhibition of wild-type PyrG: dose or concentration left out as unconfirmed
M. tuberculosis H37Rv [1] = experiment: microbe, parasite or virus in culture; type: cell-based
EthA [2] = target: T1, EthA (Mycobacterium tuberculosis, UniProt P9WNF9); conditions: cited from earlier work; for Km: read-out: Km (EthA substrate)
Huh7 = conditions: Huh7, at concentrations below 40 μg/ml
[3] = system: non-replicating M. tuberculosis ss18b; experiment: microbe, parasite or virus in culture; type: cell-based; conditions: Mycobacterium tuberculosis
HepG2 = conditions: HepG2, at concentrations below 40 μg/ml
PyrG = PyrG (Mycobacterium tuberculosis, UniProt P9WHK7); type: biochemical, M. tuberculosis
EthA [4] = target: T1, EthA; type: biochemical, M. tuberculosis
A549 = conditions: A549, at concentrations below 40 μg/ml
RAW 264.7 = conditions: at concentrations below 40 μg/ml
[5] = system: intracellular M. tuberculosis H37Rv; experiment: microbe, parasite or virus in culture; type: cell-based; conditions: Mycobacterium tuberculosis; for IC50: read-out: Intracellular IC50; for IC90: read-out: Intracellular IC90
M. tuberculosis H37Rv [6] = type: cell-based, Mycobacterium tuberculosis
M. tuberculosis H37Ra = experiment: MIC against M. tuberculosis H37Ra; type: cell-based, Mycobacterium tuberculosis
[7] = Mycobacterium tuberculosis, H37RV, Figure 5, H37Rv, read-out: MIC
[8] = Mycobacterium tuberculosis, H37RV, Table 1, replicating, read-out: H37Rv MIC
[9] = Mycobacterium tuberculosis, H37RV, Table 2, strain H37Rv, read-out: MIC
[10] = Mycobacterium tuberculosis, H37RV, Table S2, H37Rv, read-out: MIC
[11] = Mycobacterium tuberculosis, H37RV, Table S4, H37Rv, read-out: MIC

T1 sequence (P9WNF9 whole entry): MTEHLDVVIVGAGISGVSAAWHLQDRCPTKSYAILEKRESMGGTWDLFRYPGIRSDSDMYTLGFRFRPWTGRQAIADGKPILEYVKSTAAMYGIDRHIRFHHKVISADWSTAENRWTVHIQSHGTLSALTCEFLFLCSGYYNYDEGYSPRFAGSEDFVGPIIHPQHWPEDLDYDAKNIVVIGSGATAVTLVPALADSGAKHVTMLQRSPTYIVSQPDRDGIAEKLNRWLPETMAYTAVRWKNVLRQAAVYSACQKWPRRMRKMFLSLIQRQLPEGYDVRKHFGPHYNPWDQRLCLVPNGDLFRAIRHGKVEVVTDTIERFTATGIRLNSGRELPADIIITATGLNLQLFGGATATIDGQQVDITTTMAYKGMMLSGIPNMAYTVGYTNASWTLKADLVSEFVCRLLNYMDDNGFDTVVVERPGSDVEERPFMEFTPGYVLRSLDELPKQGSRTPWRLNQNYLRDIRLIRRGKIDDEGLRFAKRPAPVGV
wild-type PyrG, sequence (P9WHK7 whole entry): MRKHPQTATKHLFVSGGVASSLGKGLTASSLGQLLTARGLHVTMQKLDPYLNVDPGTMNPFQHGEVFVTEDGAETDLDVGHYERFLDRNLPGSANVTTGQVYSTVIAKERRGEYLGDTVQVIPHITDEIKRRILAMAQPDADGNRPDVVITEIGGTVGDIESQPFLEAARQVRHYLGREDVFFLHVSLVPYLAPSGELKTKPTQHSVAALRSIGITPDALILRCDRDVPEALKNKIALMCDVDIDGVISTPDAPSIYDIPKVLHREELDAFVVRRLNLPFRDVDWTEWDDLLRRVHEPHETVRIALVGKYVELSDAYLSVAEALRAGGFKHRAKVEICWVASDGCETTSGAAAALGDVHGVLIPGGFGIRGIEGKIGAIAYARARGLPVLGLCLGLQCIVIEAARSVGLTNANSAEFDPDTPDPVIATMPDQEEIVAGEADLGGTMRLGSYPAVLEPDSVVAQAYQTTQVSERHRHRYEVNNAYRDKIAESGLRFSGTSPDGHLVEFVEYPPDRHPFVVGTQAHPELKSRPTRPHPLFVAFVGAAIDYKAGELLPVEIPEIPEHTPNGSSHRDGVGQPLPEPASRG
PyrG, sequence (P9WHK7 whole entry): as above

O=C(CCc1ccccc1)NC(=O)Nc1ccc(N2CCCCC2)cc1 [3-phenyl-N-[(4-piperidin-1-ylphenyl)carbamoyl]propanamide]
effect on PyrG enzymatic activity (wild-type PyrG): no effect

CCc1cc(C(N)=S)ccn1 [ETH, ethionamide, reference compound]
MIC (M. tuberculosis H37Rv [1]; Mycobacterium tuberculosis, H37RV): 1 µg/mL (≈ 6.02 µM) | Km (EthA [2]): 340 µM

Cc1ccc(C(=O)Nc2ccc([N+](=O)[O-])cc2)[s+]1[O-] (centres unmarked) [M2]
effect on PyrG enzymatic activity (wild-type PyrG): inhibit

O=C(CCc1ccccc1)NC(=S)Nc1ccc(N2CCCCC2)cc1 [compound 7904688, 3-phenyl-N-[(4-piperidin-1-ylphenyl)carbamothioyl]propanamide]
effect on wild-type PyrG (wild-type PyrG): ineffective | cytotoxicity (Huh7): not cytotoxic | IC50 [3]: 2.5 µg/mL (≈ 6.8 µM) | IC90 [3]: 20 µg/mL (≈ 54.4 µM) | cytotoxicity (HepG2): not cytotoxic | loss of PyrG activity (PyrG): about 80% | MIC (M. tuberculosis H37Rv [1]; [7]): 0.5 µg/mL (≈ 1.36 µM) | MIC (M. tuberculosis H37Rv [1]; [8]): 0.5 µg/mL (≈ 1.36 µM) | MIC (M. tuberculosis H37Rv [1]; [9]): 0.5 µg/mL (≈ 1.36 µM) | higher affinity for EthA than ETH (EthA [4]): ~10 fold | cytotoxicity (A549): not cytotoxic | cytotoxicity (RAW 264.7): not cytotoxic | IC50 [5]: 0.175 µg/mL (≈ 0.476 µM) | IC90 [5]: 0.625 µg/mL (≈ 1.7 µM)

Cc1ccc(C(=O)Nc2ccc([N+](=O)[O-])cc2)s1 [compound 7947882, 5-methyl-N-(4-nitrophenyl)thiophene-2-carboxamide]
melting point: 178 to 180 °C | effect on wild-type PyrG (wild-type PyrG): ineffective | cytotoxicity (Huh7): not cytotoxic | IC50 [3]: 2.5 µg/mL (≈ 9.53 µM) | IC90 [3]: 10 µg/mL (≈ 38.1 µM) | cytotoxicity (HepG2): not cytotoxic | time in which PyrG lost full activity (PyrG): ≤ 4 h | MIC (M. tuberculosis H37Rv [1]; [7]): 0.5 µg/mL (≈ 1.91 µM) | MIC (M. tuberculosis H37Rv [1]; [8]): 0.5 µg/mL (≈ 1.91 µM) | MIC (M. tuberculosis H37Rv [1]; [9]): 0.5 µg/mL (≈ 1.91 µM) | MIC (M. tuberculosis H37Rv [1]; [10]): 0.5 µg/mL (≈ 1.91 µM) | MIC (M. tuberculosis H37Rv [1]; [11]): 0.5 µg/mL (≈ 1.91 µM) | higher affinity for EthA than ETH (EthA [4]): ~10 fold | abundance of nucleotide intermediates (M. tuberculosis H37Rv [6]): substantial increase | cytotoxicity (A549): not cytotoxic | cytotoxicity (RAW 264.7): not cytotoxic | IC50 [5]: 0.625 µg/mL (≈ 2.38 µM) | IC90 [5]: 1.25 µg/mL (≈ 4.77 µM)

Cc1ccc(C(=O)O)s1 [compound 11326028, 5-methylthiophene-2-carboxylic acid]
MIC (M. tuberculosis H37Rv [1]; Figure 5, H37Rv): 0.128 µg/mL (≈ 0.9 µM) | MIC (M. tuberculosis H37Rv [1]; [7]): 0.125 µg/mL (≈ 0.879 µM) | MIC (M. tuberculosis H37Rv [1]; [11]): 0.128 µg/mL (≈ 0.9 µM)

COc1ccc(NC(=O)c2cc([N+](=O)[O-])c(C)s2)cc1OC [compound 11326054]
melting point: 200 to 202 °C | MIC (M. tuberculosis H37Rv [1]; [7]): 0.25 µg/mL (≈ 0.776 µM) | MIC (M. tuberculosis H37Rv [1]; [11]): 0.25 µg/mL (≈ 0.776 µM) | kcat (compound as EthA substrate) (EthA [4]): 0.0163 ± 0.0005 s⁻¹

CC1=CC=C(C(=O)Nc2ccc([N+](=O)[O-])cc2)S1(=O)=O [compound 11426026]
% inhibition of wild-type PyrG (wild-type PyrG): 83.6 ± 3.8% | effect on PyrG enzymatic activity (wild-type PyrG): inhibit; also recorded: higher degree of inhibition | MIC (M. tuberculosis H37Ra): 4 µg/mL (≈ 13.6 µM) | MIC (M. tuberculosis H37Rv [1]; [10]): 1 µg/mL (≈ 3.4 µM) | MIC (M. tuberculosis H37Rv [1]; Mycobacterium tuberculosis, H37RV, Table S5, read-out: H37Rv MIC): 1 µg/mL (≈ 3.4 µM)

CC(=O)Cc1ccccc1 [phenylacetone]
Km (EthA [2]; comparison values, ref Fraaije et al., 2004): 60 µM | kcat (EthA substrate) (EthA [2]; ref Fraaije et al., 2004): 0.027 s⁻¹

— publication PMC4521081, “Thiophenecarboxamide Derivatives Activated by EthA Kill Mycobacterium tuberculosis by Inhibiting the CTP Synthetase PyrG” (Chemistry & Biology, 2015)
